According to patent US8614201B2 (Janssen Pharmaceutica NV, priority 2009, dated 2013):
pIC50: −log10 of the molar value.

Molecular target: Human TRPA1 (Homo sapiens, UniProt O75762)
Assay: Assay 1: In vitro cellular testing of TRPA1 modulation (CHO-TREx, Fluo-3 calcium fluorescence, AITC agonist)
Type: cell-based
Parameters: expressed in transfected cells; host or cells: CHO-TREx cells (Invitrogen), vector pcDNA4/TO
Conditions: CHO-TREx cells expressing human TRPA1; Fluo-3 fluorescence (FLIPR/Tetra); agonist 15 μM allyl isothiocyanate (AITC); 30 minute antagonist incubation
In short: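 Antagonist potency is the 50% reduction of the AITC (15 μM) calcium response, Hill-fitted against no-antagonist and 10 μM ruthenium red controls. Fluo-3-loaded (4 μM) CHO-TREx cells with tetracycline-inducible human TRPA1 got compound in HEPES saline pH 7.4 for 30 min, usually from 10 μM in three-fold dilutions.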

Human TRPA1, sequence (O75762 whole entry): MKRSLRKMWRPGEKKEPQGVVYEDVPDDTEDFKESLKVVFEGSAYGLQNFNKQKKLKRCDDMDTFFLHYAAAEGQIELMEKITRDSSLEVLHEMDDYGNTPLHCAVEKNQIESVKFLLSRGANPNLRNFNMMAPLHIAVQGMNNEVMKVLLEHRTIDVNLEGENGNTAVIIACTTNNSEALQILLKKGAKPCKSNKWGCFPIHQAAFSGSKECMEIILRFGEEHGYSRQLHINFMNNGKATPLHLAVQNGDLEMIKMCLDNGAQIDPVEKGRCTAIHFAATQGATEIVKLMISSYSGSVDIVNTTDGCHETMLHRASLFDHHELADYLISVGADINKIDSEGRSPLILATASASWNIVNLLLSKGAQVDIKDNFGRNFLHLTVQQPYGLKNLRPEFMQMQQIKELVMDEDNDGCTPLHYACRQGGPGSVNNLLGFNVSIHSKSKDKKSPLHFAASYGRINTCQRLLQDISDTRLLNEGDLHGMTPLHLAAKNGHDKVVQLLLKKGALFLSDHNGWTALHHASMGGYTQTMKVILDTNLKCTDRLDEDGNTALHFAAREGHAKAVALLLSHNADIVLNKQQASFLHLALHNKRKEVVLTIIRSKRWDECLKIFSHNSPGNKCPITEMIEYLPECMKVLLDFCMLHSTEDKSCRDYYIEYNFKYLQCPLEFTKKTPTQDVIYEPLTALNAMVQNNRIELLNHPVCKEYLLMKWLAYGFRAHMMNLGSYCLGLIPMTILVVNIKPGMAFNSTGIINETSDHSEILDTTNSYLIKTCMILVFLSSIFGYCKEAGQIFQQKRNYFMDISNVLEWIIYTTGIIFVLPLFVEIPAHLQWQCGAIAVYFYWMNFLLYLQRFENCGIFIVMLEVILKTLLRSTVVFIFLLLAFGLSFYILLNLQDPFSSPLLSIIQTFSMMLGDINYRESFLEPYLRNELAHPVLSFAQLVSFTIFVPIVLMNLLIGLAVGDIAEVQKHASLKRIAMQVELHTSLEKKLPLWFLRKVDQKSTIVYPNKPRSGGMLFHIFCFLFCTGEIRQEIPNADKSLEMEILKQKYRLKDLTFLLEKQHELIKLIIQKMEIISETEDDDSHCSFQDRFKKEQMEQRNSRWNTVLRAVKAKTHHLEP

SMILES	pIC50
O=C(NCc1cc(-c2ccc(C(F)(F)F)cc2)nc(N2CCN(Cc3ccccc3OC(F)(F)F)CC2)n1)[C@@H]1CCCN1S(=O)(=O)c1ccc(F)cc1 [Example 51, 1-(4-Fluoro-benzenesulfonyl)-pyrrolidine-2S-carboxylic acid [2-[4-(2-trifluoromethoxy-benzyl)-piperazin-1-yl]-6-(4-trifluoromethyl-phenyl)-pyrimidin-4-ylmethyl]-amide]	6.83
CCc1ccccc1CN1CCN(c2nc(CNC(=O)[C@@H]3CCCN3S(=O)(=O)c3ccc(F)cc3)cc(-c3ccc(C(F)(F)F)cc3)n2)CC1 [Example 52, 1-(4-Fluoro-benzenesulfonyl)-pyrrolidine-2S-carboxylic acid [2-[4-(2-ethyl-benzyl)-piperazin-1-yl]-6-(4-trifluoromethyl-phenyl)-pyrimidin-4-ylmethyl]-amide]	7.89
CC(=O)N(C)C1CCN(c2nc(CNC(=O)[C@@H]3CCCN3S(=O)(=O)c3ccc(Cl)s3)cc(-c3ccc(C(F)(F)F)cc3)n2)C1 (stereo partly drawn) [Example 53, 1-(5-Chloro-thiophene-2-sulfonyl)-pyrrolidine-2S-carboxylic acid [2-[3-(acetyl-methyl-amino)-pyrrolidin-1-yl]-6-(4-trifluoromethyl-phenyl)-pyrimidin-4-ylmethyl]-amide]	6.37
CCN(CC)C1CCN(c2nc(CNC(=O)[C@@H]3CCCN3S(=O)(=O)c3ccc(Cl)s3)cc(-c3ccc(C(F)(F)F)cc3)n2)C1 (stereo partly drawn) [Example 54, 1-(5-Chloro-thiophene-2-sulfonyl)-pyrrolidine-2S-carboxylic acid [2-(3-diethylamino-pyrrolidin-1-yl)-6-(4-trifluoromethyl-phenyl)-pyrimidin-4-ylmethyl]-amide]	5.97
CC(C)N1CCC(CN(C)c2nc(CNC(=O)[C@@H]3CCCN3S(=O)(=O)c3ccc(Cl)s3)cc(-c3ccc(C(F)(F)F)cc3)n2)CC1 [Example 55, 1-(5-Chloro-thiophene-2S-sulfonyl)-pyrrolidine-2S-carboxylic acid [2-[(1-isopropyl-piperidin-4-ylmethyl)-methyl-amino]-6-(4-trifluoromethyl-phenyl)-pyrimidin-4-ylmethyl]-amide]	5.59
CC(C)CN1CCN(c2nc(CNC(=O)[C@@H]3C=CCN3S(=O)(=O)c3ccc(Cl)s3)cc(-c3ccc(C(F)(F)F)cc3)n2)CC1 [Example 56, 1-(5-Chloro-thiophene-2-sulfonyl)-2,5-dihydro-1H-pyrrole-2S-carboxylic acid [2-(4-isobutyl-piperazin-1-yl)-6-(4-trifluoromethyl-phenyl)-pyrimidin-4-ylmethyl]-amide]	7.29
CC(C)CN1CCN(c2nc(CNC(=O)[C@@H]3CC(F)(F)CN3S(=O)(=O)c3ccc(Cl)s3)cc(-c3ccc(C(F)(F)F)cc3)n2)CC1 [Example 57, 1-(5-Chloro-thiophene-2-sulfonyl)-4,4-difluoro-pyrrolidine-2S-carboxylic acid [2-(4-isobutyl-piperazin-1-yl)-6-(4-trifluoromethyl-phenyl)-pyrimidin-4-ylmethyl]-amide]	6.71
O=C(NCc1cc(-c2ccc(C(F)(F)F)cc2)nc(OCC(F)(F)F)n1)[C@@H]1CCCN1S(=O)(=O)c1ccc(Cl)s1 [Example 58, 1-(5-Chloro-thiophene-2-sulfonyl)-pyrrolidine-2S-carboxylic acid [2-(2,2,2-trifluoro-ethoxy)-6-(4-trifluoromethyl-phenyl)-pyrimidin-4-ylmethyl]-amide]	8.30
CN(C)c1nc(CNC(=O)[C@@H]2CC(F)(F)CN2S(=O)(=O)c2ccc(Cl)s2)cc(-c2ccc(C(F)(F)F)cc2)n1 [Example 59]	7.09
CC1CCCN1c1nc(CNC(=O)[C@@H]2CC(F)(F)CN2S(=O)(=O)c2ccc(Cl)s2)cc(-c2ccc(C(F)(F)F)cc2)n1 (stereo partly drawn) [Example 60, 1-(5-Chloro-thiophene-2-sulfonyl)-4,4-difluoro-pyrrolidine-2S-carboxylic acid [2-(2-methyl-pyrrolidin-1-yl)-6-(4-trifluoromethyl-phenyl)-pyrimidin-4-ylmethyl]-amide]	5.21
O=C(NCc1cc(-c2ccc(C(F)(F)F)cc2)nc(OCC(F)(F)F)n1)[C@@H]1CC(F)(F)CN1S(=O)(=O)c1ccc(Cl)s1 [Example 61, 1-(5-Chloro-thiophene-2-sulfonyl)-4,4-difluoro-pyrrolidine-2S-carboxylic acid [2-(2,2,2-trifluoro-ethoxy)-6-(4-trifluoromethyl-phenyl)-pyrimidin-4-ylmethyl]-amide]	6.98
O=C(NCc1cc(-c2ccc(C(F)(F)F)cc2)nc(OCCN2CCCC2)n1)[C@@H]1CCCN1S(=O)(=O)c1ccc(Cl)s1 [Example 62, 1-(5-Chloro-thiophene-2-sulfonyl)-pyrrolidine-2S-carboxylic acid [2-(2-pyrrolidin-1-yl-ethoxy)-6-(4-trifluoromethyl-phenyl)-pyrimidin-4-ylmethyl]-amide]	5.49
O=C(NCc1cc(-c2ccc(C(F)(F)F)cc2)nc(OCCN2CCCCC2)n1)[C@@H]1CCCN1S(=O)(=O)c1ccc(Cl)s1 [Example 63, 1-(5-Chloro-thiophene-2-sulfonyl)-pyrrolidine-2S-carboxylic acid [2-(2-piperidin-1-yl-ethoxy)-6-(4-trifluoromethyl-phenyl)-pyrimidin-4-ylmethyl]-amide]	7.11
O=C(NCc1cc(-c2ccc(C(F)(F)F)cc2)nc(OCCN2CCOCC2)n1)[C@@H]1CCCN1S(=O)(=O)c1ccc(Cl)s1 [Example 64, 1-(5-Chloro-thiophene-2-sulfonyl)-pyrrolidine-2S-carboxylic acid [2-(2-morpholin-4-yl-ethoxy)-6-(4-trifluoromethyl-phenyl)-pyrimidin-4-ylmethyl]-amide]	6.63
O=C(NCc1cccc(-c2ccc(C(F)(F)F)cc2)c1)[C@@H]1CCCN1S(=O)(=O)c1ccc(F)cc1 [Example 65, 1-(4-Fluorobenzenesulfonyl)-pyrrolidine-2S-carboxylic acid (4′-trifluoromethylbiphenyl-3-ylmethyl)-amide]	7.82
O=C(NCc1cccc(-c2cccc(C(F)(F)F)c2)c1)[C@@H]1CCCN1S(=O)(=O)c1ccc(F)cc1 [Example 66, 1-(4-Fluorobenzenesulfonyl)-pyrrolidine-2S-carboxylic acid (3′-trifluoromethylbiphenyl-3-ylmethyl)-amide]	6.60
O=C(NCc1cccc(-c2ccccc2C(F)(F)F)c1)[C@@H]1CCCN1S(=O)(=O)c1ccc(F)cc1 [Example 67, 1-(4-Fluorobenzenesulfonyl)-pyrrolidine-2S-carboxylic acid (2′-trifluoromethylbiphenyl-3-ylmethyl)-amide]	6.29
O=C(NCc1cccc(-c2ccc(OC(F)(F)F)cc2)c1)[C@@H]1CCCN1S(=O)(=O)c1ccc(F)cc1 [Example 68, 1-(4-Fluorobenzenesulfonyl)-pyrrolidine-2S-carboxylic acid (4′-trifluoromethoxybiphenyl-3-ylmethyl)-amide]	7.59
O=C(NCc1cccc(-c2cccc(OC(F)(F)F)c2)c1)[C@@H]1CCCN1S(=O)(=O)c1ccc(F)cc1 [Example 69, 1-(4-Fluorobenzenesulfonyl)-pyrrolidine-2S-carboxylic acid (3′-trifluoromethoxybiphenyl-3-ylmethyl)-amide]	6.74
O=C(NCc1cccc(-c2ccccc2OC(F)(F)F)c1)[C@@H]1CCCN1S(=O)(=O)c1ccc(F)cc1 [Example 70, 1-(4-Fluorobenzenesulfonyl)-pyrrolidine-2S-carboxylic acid (2′-trifluoromethoxybiphenyl-3-ylmethyl)-amide]	6.13
O=C(NCc1cccc(-c2ccc(C(F)(F)F)c(F)c2)c1)[C@@H]1CCCN1S(=O)(=O)c1ccc(F)cc1 [Example 71, 1-(4-Fluorobenzenesulfonyl)-pyrrolidine-2S-carboxylic acid (3′-fluoro-4′-trifluoromethylbiphenyl-3-ylmethyl)-amide]	7.85
O=C(NCc1cccc(-c2ccc(C(F)(F)F)c(Cl)c2)c1)[C@@H]1CCCN1S(=O)(=O)c1ccc(F)cc1 [Example 72, 1-(4-Fluoro-benzenesulfonyl)-pyrrolidine-2S-carboxylic acid (3′-chloro-4′-trifluoromethyl-biphenyl-3-ylmethyl)-amide]	7.77
O=C(NCc1cccc(-c2ccc(OC(F)(F)F)c(F)c2)c1)[C@@H]1CCCN1S(=O)(=O)c1ccc(F)cc1 [Example 73, 1-(4-Fluorobenzenesulfonyl)-pyrrolidine-2S-carboxylic acid (3′-fluoro-4′-trifluoromethoxybiphenyl-3-ylmethyl)-amide]	8.40
O=C(NCc1cccc(-c2cc(F)c(OC(F)F)c(F)c2)c1)[C@@H]1CCCN1S(=O)(=O)c1ccc(F)cc1 [Example 74, 1-(4-Fluorobenzenesulfonyl)-pyrrolidine-2S-carboxylic acid (4′-difluoromethoxy-3′,5′-difluorobiphenyl-3-ylmethyl)-amide]	7.77
CS(=O)(=O)c1ccc(-c2cccc(CNC(=O)[C@@H]3CCCN3S(=O)(=O)c3ccc(F)cc3)c2)cc1 [Example 75, 1-(4-Fluorobenzenesulfonyl)-pyrrolidine-2S-carboxylic acid (4′-methanesulfonylbiphenyl-3-ylmethyl)-amide]	6.11
O=C(NCc1cccc(-c2ccc([N+](=O)[O-])cc2)c1)[C@@H]1CCCN1S(=O)(=O)c1ccc(F)cc1 [Example 76, 1-(4-Fluorobenzenesulfonyl)-pyrrolidine-2S-carboxylic acid (4′-nitrobiphenyl-3-ylmethyl)-amide]	7.62
O=C(NCc1cccc(-c2ccc(Br)cc2)c1)[C@@H]1CCCN1S(=O)(=O)c1ccc(F)cc1 [Example 77, 1-(4-Fluoro-benzenesulfonyl)-pyrrolidine-2S-carboxylic acid (4′-bromo-biphenyl-3-ylmethyl)-amide]	7.23
